System: capsular contracture
Test: Clinical cases: topical treatment of breast capsular contracture, Baker grading
Assay type: in vivo, human
Conditions: Patient #1; bilateral Grade 3 capsular contracture, after first revision; given together with massage
Excerpt: Wash and dry the affected area (that is, the skin surrounding the implant or the skin over the capsular contracture) prior to use. Apply the composition daily (use sparingly) with vigorous massage to affected area. If necessary, exert compression or pressure when massaging to break up existing capsule. Enhanced absorption is obtained with application of the composition following a hot shower. Occlusive dressing (hydrogel), or tight clothing (sports bras), will also enhance the result. Continued daily use will yield optimal results. […] Optimal results are best maintained with daily continued application. One particularly useful embodiment of the invention involves the use of the topical compositions for the treatment/prevention of capsular contracture in breast surgery (e.g., breast implants). There are four grades of breast capsular contracture—Baker grades I through IV. The Baker grading is as follows: Grade 1—the breast is normally soft and looks natural Grade II—the breast is a little firm but looks normal Grade III—the breast is firm and looks abnormal Grade IV—the breast is hard, painful, and looks abnormal. of developed or is at risk of developing capsular contracture a topical composition.

SMILES: COc1ccc2cc([C@H](C)C(=O)O)ccc2c1 [Aleve, naproxen sodium]
- response of capsular contracture to treatment: without result
